Patent US10932454B2, “LDL receptor gene knockout, genetically-engineered hamster” (HEBEI INVIVO BIOTECH INC, priority 2016, dated 2021)
Entries after “also recorded” stand apart in the source; their conditions may differ.

Assays:
[1] = tested on: LDL-R gene deficient Δ194 bp heterozygous hamsters; test: High-fat diet feeding with intragastric ezetimibe in LDL-R+/- hamsters; plasma lipids, lipoprotein FPLC, body weight; format: in vivo, golden Syrian hamster
Procedure: (§1) The high-fat diet used in the study was a normal rodent diet containing 0.5% cholesterol and 10% lard. The dose of ezetimibe was 2 mg/kg body weight, administered by intragastric administration, and the control group was given tri-distilled water. Plasma was collected before high-fat diet feeding, after two weeks of high-fat diet feeding, before administration and after two weeks of administration, respectively. The hamsters were fasted for 12 hours at night, anesthetized by intraperitoneal injection of pentobarbital sodium, and about 1 ml of blood was collected from the posterior orbital vein, and heparin was used for anticoagulation. A plasma triglyceride assay kit and a total cholesterol assay kit (Biosino Bio-Technology and Science Inc.) were used to detect plasma triglyceride and total cholesterol levels. High-density lipoprotein cholesterol (HDL-C) was tested for cholesterol levels after removal of apoB-containing lipoproteins by polyethylene glycol precipitation. The lipid component of plasma lipoprotein was detected by using fast protein liquid chromatography (FPLC) instrument of Amersham Biocsciences, USA, and the plasma lipoprotein fraction was firstly separated by superose 6 HR10/30 column. 200 μl of plasma was loaded through a 0.22 μm syringe filter, and the separated components were automatically collected at a rate of 0.5 mL per minute, 500 μl per component, for a total of 35 components. The above cholesterol detection kit was applied to each component to detect the cholesterol content, and a plasma lipoprotein profile was prepared.

[2] = tested on: wild type control hamsters; test: High-fat diet feeding with intragastric ezetimibe in wild type hamsters; plasma lipids; format: in vivo, golden Syrian hamster; conditions: WT hamsters, high-fat diet plus 2 mg/kg ezetimibe intragastric daily for two weeks
Procedure: as §1, with “200 μl of plasma was loaded through a 0.22 μm syringe filter, and the separated components were automatically collected at a rate of 0.5 mL per minute, 500 μl per component, for a total of 35 components. The above cholesterol detection kit was applied to each component to detect the cholesterol content, and a plasma lipoprotein profile was prepared.” left out

[3] = 2 mg/kg intragastric daily, two weeks, high-fat diet

## O=C1[C@H](CC[C@H](O)c2ccc(F)cc2)[C@@H](c2ccc(O)cc2)N1c1ccc(F)cc1 [ezetimibe]
[1]; 2 mg/kg intragastric daily, high-fat diet
  effect on hyperlipidemia of LDL-R knockout hamsters: significantly reverses hyperlipidemia; also recorded: significantly reversed hypelipidemia
[1]; [3]
  HDL cholesterol in plasma (FPLC): not significantly changed; also recorded: little effect on HDL
  VLDL and LDL cholesterol in plasma (FPLC): decrease of VLDL-C and LDL-C; also recorded: mainly decreased VLDL and LDL in plasma
[1]; 2 mg/kg intragastric daily, two weeks, high-fat diet, each group of hamsters (WT and LDL-R+/-)
  body weight, ezetimibe-administered group vs high-fat diet feeding group: no significant difference
[1]; LDL-R heterozygous hamster on high-fat diet (0.5% cholesterol, 10% fat), ezetimibe 2 mg/kg
  plasma cholesterol change after administration (in words): decreased to the level of the wild type hamster fed on common diet
[1]; LDL-R+/- hamsters, high-fat diet plus 2 mg/kg ezetimibe intragastric daily for two weeks, high-fat diet only 658 mg/dL
  triglyceride level after administration: 225 mg/dL
[1]; LDL-R+/- hamsters, high-fat diet plus 2 mg/kg ezetimibe intragastric daily for two weeks, high-fat diet only 1864 mg/dL
  plasma cholesterol level after administration: 157 mg/dL
[2]; high-fat diet only 413 mg/dL
  triglyceride level after administration: 157 mg/dL
[2]; high-fat diet only 513 mg/dL
  plasma cholesterol level after administration: 111 mg/dL
